Each structure is given as a SMILES string. A value given as a limit tells only on which side of the number the result lay.

The text below walks through data of patent US20260028326A1, “COMPOUND BASED ON ISOINDOLINE-SUBSTITUTED GLUTARIMIDE BACKBONE AND USE THEREOF” (GLUETACS THERAPEUTICS (SHANGHAI) CO., LTD., priority 2022, published 2026).

For data set [1], the system named is Ramos cells. Kind of data set: Tumor cell proliferation IC50 (CCK-8), Ramos. The settings on record: Homo sapiens, 72 h, read-out: IC50 for inhibiting the proliferation of tumor cells, Ramos.
Description: (§1) The tumor cells used herein were cultured in a cell culture medium listed in table A at 37° C. in an incubator with 5% CO2.
(§2) After the cells were treated with the compounds of the present disclosure for a period of time, the cell viability detection reagent was added to the culture medium for cell viability assessment according to the instructions provided with the CCK-8 kit. […] The growth inhibition of the compounds of the present disclosure on cells was plotted by Prism Graphpad software, and the IC50 values of the compounds of the present disclosure were calculated therefrom.
For data set [2], the system named is SU-DHL-6 cells. Kind of data set: Tumor cell proliferation IC50 (CCK-8), SU-DHL-6. The following applies: Homo sapiens, SU-DHL-6, 72 h, read-out: IC50 for inhibiting the proliferation of tumor cells, SU-DHL-6.
Description: (§3) Prior to experimentation, all cells used were correctly identified by STR profiling, and tested negative for mycoplasma through routine screenings.
as §2
The test system of data set [3] is CCRF-CEM cells. Put plainly: Tumor cell proliferation IC50 (CCK-8), CCRF-CEM.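 Also: cell viability measured with CCK-8 reagent after compound treatment, IC50 taken from plotted growth inhibition curves.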 The settings on record: Homo sapiens, 96 h, read-out: IC50 for inhibiting the proliferation of tumor cells, CCRF-CEM.
In data set [4] the target is human Cereblon WT GST-tagged protein (Homo sapiens (Human), UniProt Q96SW2). Put plainly: CRBN-binding affinity, HTRF (CEREBLON BINDING kit). In short, it runs like this:
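HTRF competition readout: compounds compete with a thalidomide-Re conjugate for GST-tagged wild-type human CRBN detected via Eu-labelled anti-GST antibody. Inhibition rate derived relative to protein-free blank wells.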
Background: TR-FRET usually uses a lanthanide donor and a delayed reading to cut background.

Data set [5] addresses IKZF1 protein (Homo sapiens (Human), UniProt Q13422+Q96SW2). Put plainly: Western-blot assay of substrate protein degradation in hPBMC, IKZF1. The settings on record: for residual substrate protein level, IKZF1: hPBMC cells, compound 500 nM, 24 hours, Western blot. The class given is cell-based. A general note: In western blotting, separated proteins are transferred to a membrane and probed.

Data set [6] deals with IKZF3 protein (Homo sapiens (Human), UniProt Q96SW2+Q9UKT9). Put plainly: Western-blot assay of substrate protein degradation in hPBMC, IKZF3. The class given is cell-based. The following applies: for residual substrate protein level, IKZF3: hPBMC cells, compound 500 nM, 24 hours, Western blot.
Sequence of IKZF3 protein (Q9UKT9 whole entry): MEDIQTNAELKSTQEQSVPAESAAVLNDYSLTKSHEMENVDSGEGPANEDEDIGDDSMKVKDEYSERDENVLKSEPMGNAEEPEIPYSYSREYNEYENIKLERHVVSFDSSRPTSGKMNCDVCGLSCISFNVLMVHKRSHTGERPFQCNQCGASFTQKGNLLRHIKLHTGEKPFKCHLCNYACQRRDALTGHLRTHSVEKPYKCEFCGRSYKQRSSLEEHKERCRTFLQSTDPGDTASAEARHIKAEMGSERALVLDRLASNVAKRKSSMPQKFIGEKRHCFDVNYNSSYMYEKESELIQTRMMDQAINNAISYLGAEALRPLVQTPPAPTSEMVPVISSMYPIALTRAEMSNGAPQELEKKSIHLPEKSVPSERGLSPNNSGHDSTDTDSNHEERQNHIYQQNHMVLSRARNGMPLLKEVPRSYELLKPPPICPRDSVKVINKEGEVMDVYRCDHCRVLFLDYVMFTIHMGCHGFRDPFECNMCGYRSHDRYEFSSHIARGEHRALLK
Sequence of IKZF3 protein (Q96SW2 whole entry): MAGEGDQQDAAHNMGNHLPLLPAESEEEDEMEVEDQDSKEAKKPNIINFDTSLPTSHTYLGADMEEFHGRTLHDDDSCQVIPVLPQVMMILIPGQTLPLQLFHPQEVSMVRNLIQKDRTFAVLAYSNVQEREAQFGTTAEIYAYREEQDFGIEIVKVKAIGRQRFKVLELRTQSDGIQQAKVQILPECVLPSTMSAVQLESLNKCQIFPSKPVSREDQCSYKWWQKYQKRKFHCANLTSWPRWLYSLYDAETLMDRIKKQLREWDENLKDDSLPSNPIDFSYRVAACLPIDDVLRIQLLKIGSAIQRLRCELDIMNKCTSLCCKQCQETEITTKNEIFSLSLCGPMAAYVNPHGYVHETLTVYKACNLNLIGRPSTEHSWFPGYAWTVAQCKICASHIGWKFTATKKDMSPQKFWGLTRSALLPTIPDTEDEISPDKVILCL
Sequence of IKZF3 protein (Q16531 whole entry partner): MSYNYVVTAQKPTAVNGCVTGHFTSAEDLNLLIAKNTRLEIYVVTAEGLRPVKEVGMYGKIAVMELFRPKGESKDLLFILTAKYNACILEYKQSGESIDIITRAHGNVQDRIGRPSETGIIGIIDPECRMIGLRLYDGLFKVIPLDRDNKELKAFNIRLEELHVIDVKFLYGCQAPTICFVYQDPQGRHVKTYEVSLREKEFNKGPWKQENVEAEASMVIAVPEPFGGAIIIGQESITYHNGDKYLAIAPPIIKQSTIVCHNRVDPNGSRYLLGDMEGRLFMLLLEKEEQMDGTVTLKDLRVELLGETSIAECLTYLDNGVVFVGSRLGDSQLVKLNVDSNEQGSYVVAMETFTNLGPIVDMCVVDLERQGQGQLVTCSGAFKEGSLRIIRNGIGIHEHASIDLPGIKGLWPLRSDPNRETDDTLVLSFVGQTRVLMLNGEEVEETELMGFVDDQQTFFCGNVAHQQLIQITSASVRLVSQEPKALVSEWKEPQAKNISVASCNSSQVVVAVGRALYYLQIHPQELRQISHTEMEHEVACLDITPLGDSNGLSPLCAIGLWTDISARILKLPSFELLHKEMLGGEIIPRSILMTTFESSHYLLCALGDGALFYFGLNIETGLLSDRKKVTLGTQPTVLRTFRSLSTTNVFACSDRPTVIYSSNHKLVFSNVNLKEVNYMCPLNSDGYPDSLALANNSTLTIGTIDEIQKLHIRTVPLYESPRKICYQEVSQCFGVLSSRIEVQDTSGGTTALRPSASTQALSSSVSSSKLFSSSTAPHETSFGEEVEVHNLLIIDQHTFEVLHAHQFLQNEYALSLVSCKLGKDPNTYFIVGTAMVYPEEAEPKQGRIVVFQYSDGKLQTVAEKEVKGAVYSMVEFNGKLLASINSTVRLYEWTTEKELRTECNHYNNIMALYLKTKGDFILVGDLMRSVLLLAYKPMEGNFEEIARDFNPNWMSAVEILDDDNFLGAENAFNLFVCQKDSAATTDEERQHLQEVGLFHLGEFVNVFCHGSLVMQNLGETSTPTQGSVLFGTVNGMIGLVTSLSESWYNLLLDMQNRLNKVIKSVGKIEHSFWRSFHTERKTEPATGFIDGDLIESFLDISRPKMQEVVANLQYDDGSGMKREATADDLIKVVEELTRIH
In data set [7] the target is GSPT1 protein (Homo sapiens (Human), UniProt P15170+Q96SW2). Put plainly: Western-blot assay of substrate protein degradation in hPBMC, GSPT1. The class given is cell-based. The following applies: for residual substrate protein level, GSPT1: hPBMC cells, compound 500 nM, 24 hours, Western blot.
Sequence of GSPT1 protein (P15170 whole entry): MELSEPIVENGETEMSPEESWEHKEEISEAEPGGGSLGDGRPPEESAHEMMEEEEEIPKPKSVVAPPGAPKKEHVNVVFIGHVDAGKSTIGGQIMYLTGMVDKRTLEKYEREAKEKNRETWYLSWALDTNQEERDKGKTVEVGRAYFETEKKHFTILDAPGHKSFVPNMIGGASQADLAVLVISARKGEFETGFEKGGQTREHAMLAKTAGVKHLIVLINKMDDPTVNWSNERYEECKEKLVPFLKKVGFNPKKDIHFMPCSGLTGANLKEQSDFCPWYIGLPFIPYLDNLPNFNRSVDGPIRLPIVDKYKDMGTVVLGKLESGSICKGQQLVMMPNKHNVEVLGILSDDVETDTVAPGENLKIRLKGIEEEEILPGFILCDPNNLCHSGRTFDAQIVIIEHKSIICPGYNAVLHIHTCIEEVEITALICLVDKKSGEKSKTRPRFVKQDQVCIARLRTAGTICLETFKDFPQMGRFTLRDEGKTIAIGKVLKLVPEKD
Sequence of GSPT1 protein (Q96SW2 whole entry): as the sequence (Q96SW2 whole entry) above
Sequence of GSPT1 protein (Q16531 whole entry partner): as the sequence (Q16531 whole entry partner) above
The nature of data set [8]: Pharmacokinetic study, oral administration, mouse plasma. The class given is in vivo, mice. The following applies: p.o. 30 mg/kg. Here is the method: The experimental animals used can be those commonly used in pharmacokinetic experiments, e.g., adult and healthy rodents (e.g., mice, rats (such as Sprague-Dawley (SD) rats), guinea pigs) or non-rodents (rabbits, dogs, and monkeys). In the present disclosure, mice were used as the experimental animals.
The experimental animals were divided into two groups: a control group (for collecting blank plasma) and an orally administered group (dosed at 10 mg/kg or 30 mg/kg). Blood samples were collected at predetermined sampling time points after administration, such as 0.25 h, 0.5 h, 1 h, 2 h, 4 h, 8 h, and 24 h post-dosing. Blank plasma was collected from the control group.
Plasma samples were preprocessed before analysis: 10 μL of 50% acetonitrile and 200 μL of internal standard solution (containing 50 ng/mL dexamethasone in acetonitrile) were added to 10 μL of plasma samples. For the blank control group, the same volume of acetonitrile was added instead of the internal standard. The processed samples were vortexed, centrifuged, and the supernatant was taken for LC-MS/MS injection analysis.
After preparing standard curves and quality control (QC) samples, the concentrations of the compounds in the plasma samples were determined by LC-MS/MS analysis. Based on the plasma concentration data obtained from LC-MS/MS analysis, the pharmacokinetic parameters of the test compounds were calculated using the non-compartmental model in the pharmacokinetic calculation software WinNonlin v8.1.

In data set [9] the test system is TMD8 cells. Put plainly: Tumor cell proliferation IC50 (CCK-8), TMD8. The following applies: Homo sapiens, TMD8, 72 h, read-out: IC50 for inhibiting the proliferation of tumor cells, TMD8.
Description: as §1, §2
Data set [10] deals with Mino cells. Put plainly: Tumor cell proliferation IC50 (CCK-8), Mino.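 Also: cell viability assessed with CCK-8 reagent after compound exposure, IC50 derived from plotted growth inhibition curves.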 The settings on record: Homo sapiens, 72 h, read-out: IC50 for inhibiting the proliferation of tumor cells, Mino.
Data set [11] relates to MM.1S cells. Kind of data set: Tumor cell proliferation IC50 (CCK-8), MM.1S.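 Also: viability of cultured cells read by CCK-8 reagent after compound exposure, growth inhibition curves fitted to derive IC50.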 The settings on record: Homo sapiens, MM1.S, 72 h, read-out: IC50 for inhibiting the proliferation of tumor cells, MM.1S.
The test system of data set [12] is MM.1R cells. Put plainly: Tumor cell proliferation IC50 (CCK-8), MM.1R. The following applies: Homo sapiens, 72 h, read-out: IC50 for inhibiting the proliferation of tumor cells, MM.1R.
Description: as §1, §2
Data set [13] relates to SW620 cells. Put plainly: Tumor cell proliferation IC50 (CCK-8), SW620. The settings on record: Homo sapiens, SW-620, 96 h, read-out: IC50 for inhibiting the proliferation of tumor cells, SW620.
Description: as §1, §2
The subject of data set [14] is Kasumi-1 cells. Put plainly: Tumor cell proliferation IC50 (CCK-8), Kasumi-1. The following applies: Homo sapiens, Kasumi 1, 72 h, read-out: IC50 for inhibiting the proliferation of tumor cells, Kasumi-1.
Description: as §1, §2
Data set [15] has as its system SU-DHL-4 cells. Put plainly: Tumor cell proliferation IC50 (CCK-8), SU-DHL-4. The following applies: Homo sapiens, SU-DHL-4, 72 h, read-out: IC50 for inhibiting the proliferation of tumor cells, SU-DHL-4.
Description: as §3, §2
For data set [16], the system named is MDA-MB-231 cells. Kind of data set: Tumor cell proliferation IC50 (CCK-8), MDA-MB-231. The following applies: Homo sapiens, MDA-MB-231, 96 h, read-out: IC50 for inhibiting the proliferation of tumor cells, MDA-MB-231.
Description: as §3, §2
In data set [17] the test system is Daudi cells. Kind of data set: Tumor cell proliferation IC50 (CCK-8), Daudi.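 Also: cell viability read with CCK-8 reagent after compound exposure of Daudi cells, IC50 derived from plotted growth inhibition curves.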 The following applies: Homo sapiens, read-out: IC50 for inhibiting the proliferation of tumor cells, Daudi.
Description: as §1, §2
The subject of data set [18] is MV-4-11 cells. Put plainly: Tumor cell proliferation IC50 (CCK-8), MV-4-11. The settings on record: Homo sapiens, MV4-11, 96 h, read-out: IC50 for inhibiting the proliferation of tumor cells, MV-4-11.
Description: as §1, §2

Sequence of human Cereblon WT GST-tagged protein (Q96SW2 whole entry): as the sequence (Q96SW2 whole entry) above
Sequence of IKZF1 protein (Q13422 whole entry): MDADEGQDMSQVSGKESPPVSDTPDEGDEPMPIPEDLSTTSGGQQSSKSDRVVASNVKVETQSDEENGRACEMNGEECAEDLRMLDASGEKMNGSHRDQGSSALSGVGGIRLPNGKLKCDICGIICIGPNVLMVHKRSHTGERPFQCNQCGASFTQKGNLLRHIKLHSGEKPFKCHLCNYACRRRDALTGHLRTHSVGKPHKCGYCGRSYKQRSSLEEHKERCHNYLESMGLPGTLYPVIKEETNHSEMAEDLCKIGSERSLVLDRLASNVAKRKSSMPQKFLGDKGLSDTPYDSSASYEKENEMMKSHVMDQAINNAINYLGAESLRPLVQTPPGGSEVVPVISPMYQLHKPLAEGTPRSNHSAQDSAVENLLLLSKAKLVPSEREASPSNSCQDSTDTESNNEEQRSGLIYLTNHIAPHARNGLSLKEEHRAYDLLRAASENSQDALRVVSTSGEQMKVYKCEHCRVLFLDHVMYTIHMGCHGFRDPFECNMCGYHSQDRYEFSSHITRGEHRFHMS
Sequence of IKZF1 protein (Q96SW2 whole entry): as the sequence (Q96SW2 whole entry) above
Sequence of IKZF1 protein (Q16531 whole entry partner): as the sequence (Q16531 whole entry partner) above

As for `O=C1CCC(N2Cc3cc(-c4ccc(CN5CCN(Cc6ccccc6-c6ccc(Cl)cc6)CC5)cc4)ccc3C2=O)C(=O)N1` (centres unmarked) [GT-03356, 3-(5-(4-((4-((4′-chloro-[1,1′-biphenyl]-2-yl)methyl)piperazin-1-yl)methyl)phenyl)-1-oxoisoindolin-2-yl)piperidine-2,6-dione], the IC50 is 5000 to 10000 nM in [1], 100 to 500 nM in [2] and 1000 to 5000 nM in [3].

Consider `O=C1CCC(N2Cc3cc(CN4CCN(Cc5ccccc5-c5ccc(Cl)cc5)CC4)ccc3C2=O)C(=O)N1` (centres unmarked) [GT-03355, 3-(5-((4-((4′-chloro-[1,1′-biphenyl]-2-yl)methyl)piperazin-1-yl)methyl)-1-oxoisoindolin-2-yl)piperidine-2,6-dione], for which the IC50 in [4] is 770 nM; in [9] it was under 5 nM; in data set [10], under 5 nM; in data set [11] it was under 5 nM; in data set [12] it was under 5 nM; in data set [1] it was 5 to 10 nM. Moreover, the IC50 in data set [13] is 5 to 10 nM; in data set [14], under 5 nM; in [15], 100 to 500 nM; in data set [2] it was 10 to 50 nM; in data set [3] it was under 5 nM; in data set [16] it was under 5 nM. Also, the “residual substrate protein level, IKZF1” value in data set [5] is “A (A represents a residual substrate protein level of <50%)”. Besides, in data set [6], the “residual substrate protein level, IKZF3” value is “A (A represents a residual substrate protein level of <50%)”. The “residual substrate protein level, GSPT1” value in data set [7] is reported as “A (A represents a residual substrate protein level of <50%)”. In data set [8], the AUC(0-t) (commonly the area under the concentration-time curve up to a stated or last time point) was over 500 ng·h/mL.

As for `O=C1CCC(N2Cc3cc(CN4CCN(Cc5ccccc5-c5ccc(Cl)cc5)CC4)c(F)cc3C2=O)C(=O)N1` (centres unmarked) [GT-03695, 3-(5-((4-((4′-chloro-[1,1′-biphenyl]-2-yl)methyl)piperazin-1-yl)methyl)-6-fluoro-1-oxoisoindolin-2-yl)piperidine-2,6-dione], the IC50 is 1170 nM in data set [4], 5 to 10 nM in data set [10], 5 to 10 nM in data set [13] and 50 to 100 nM in data set [15]. In addition, the “residual substrate protein level, IKZF1” value in [5] is listed as “A (A represents a residual substrate protein level of <50%)”. For the same compound, the “residual substrate protein level, IKZF3” value in data set [6] is “A (A represents a residual substrate protein level of <50%)”. Also, the “residual substrate protein level, GSPT1” value in data set [7] is “A (A represents a residual substrate protein level of <50%)”. Further, the AUC(0-t) in data set [8] is over 500 ng·h/mL.

Consider `O=C1CCC(N2Cc3c(ccc(CN4CCN(Cc5ccccc5-c5ccc(Cl)cc5)CC4)c3F)C2=O)C(=O)N1` (centres unmarked) [GT-03694, 3-(5-((4-((4′-chloro-[1,1′-biphenyl]-2-yl)methyl)piperazin-1-yl)methyl)-4-fluoro-1-oxoisoindolin-2-yl)piperidine-2,6-dione], for which the IC50 in [4] is 540 nM; in data set [10], 5 to 10 nM; in data set [13] it was under 5 nM; in [15], 100 to 500 nM. In addition, the “residual substrate protein level, IKZF1” value in data set [5] is recorded as “A (A represents a residual substrate protein level of <50%)”. Further, the “residual substrate protein level, IKZF3” value in data set [6] is listed as “A (A represents a residual substrate protein level of <50%)”. In addition, in data set [7], the “residual substrate protein level, GSPT1” value is given as “A (A represents a residual substrate protein level of <50%)”. This compound also gave an AUC(0-t) in [8] of over 500 ng·h/mL.

Turning to `CC1(C)CCC(CN2CCN(Cc3ccc4c(c3F)CN(C3CCC(=O)NC3=O)C4=O)CC2)=C(c2ccc(Cl)cc2)C1` (centres unmarked) [GT-03468, 3-(5-((4-((4′-chloro-5,5-dimethyl-3,4,5,6-tetrahydro-[1,1′-biphenyl]-2-yl)methyl)piperazin-1-yl)methyl)-4-fluoro-1-oxoisoindolin-2-yl)piperidine-2,6-dione], the IC50 is 2960 nM in [4]; 100 to 500 nM in data set [9]; 100 to 500 nM in data set [10]; 10 to 50 nM in [11]; 10 to 50 nM in data set [12]; 100 to 500 nM in [1]. Further, the IC50 in data set [13] was 10 to 50 nM; in [14], 10 to 50 nM; in data set [15] it was 5000 to 10000 nM; in data set [3], 10 to 50 nM; in data set [16] it was 10 to 50 nM. Besides, in data set [5], the “residual substrate protein level, IKZF1” value is given as “A (A represents a residual substrate protein level of <50%)”. Moreover, in data set [6], the “residual substrate protein level, IKZF3” value is given as “A (A represents a residual substrate protein level of <50%)”. For the same compound, the “residual substrate protein level, GSPT1” value in data set [7] is “A (A represents a residual substrate protein level of <50%)”. Moreover, the AUC(0-t) in data set [8] was over 500 ng·h/mL.

Take `CC1(C)CCC(CN2CCN(Cc3cc4c(cc3F)C(=O)N(C3CCC(=O)NC3=O)C4)CC2)=C(c2ccc(Cl)cc2)C1` (centres unmarked) [GT-03578, 3-(5-((4-((4′-chloro-5,5-dimethyl-3,4,5,6-tetrahydro-[1,1′-biphenyl]-2-yl)methyl)piperazin-1-yl)methyl)-6-fluoro-1-oxoisoindolin-2-yl)piperidine-2,6-dione]: the IC50 in data set [4] is 1830 nM; in data set [9] it was 10 to 50 nM; in [11], under 5 nM; in [12], 5 to 10 nM; in data set [1] it was 10 to 50 nM; in data set [14], under 5 nM. The IC50 is 100 to 500 nM in data set [15], 1000 to 5000 nM in [2], under 5 nM in data set [3] and under 5 nM in [16]. Besides, in [5], the “residual substrate protein level, IKZF1” value is given as “A (A represents a residual substrate protein level of <50%)”. Besides, the “residual substrate protein level, IKZF3” value in data set [6] was “A (A represents a residual substrate protein level of <50%)”. Further, the “residual substrate protein level, GSPT1” value in [7] was “A (A represents a residual substrate protein level of <50%)”. The compound further returned an area under the curve AUC(0-t) in [8] of over 500 ng·h/mL.

For `Nc1cccc2c1C(=O)N(C1CCC(=O)NC1=O)C2=O` (centres unmarked) [pomalidomide, reference compound], the “degradation of IKZF1 protein (Western blot, FIG. 1)” value in data set [5] (hPBMC, 24 h, 50 nM) is reported as “cannot degrade”. In addition, the “degradation of IKZF3 protein (Western blot, FIG. 1)” value in data set [6] (hPBMC, 24 h, 50 nM) is given as “cannot degrade”. In [7] (hPBMC, 24 h, 50 nM), the “degradation of GSPT1 protein (Western blot, FIG. 1)” value is on record as “cannot degrade”. Besides, the IC50 is 500 to 1000 nM in [9]; 1000 to 5000 nM in data set [10]; 100 to 500 nM in data set [11]; over 10000 nM in data set [12]; 5000 to 10000 nM in [17]; 1000 to 5000 nM in [1]. Further, the IC50 in [13], in data set [18], in data set [14], in [15], in data set [2] and in data set [3] was over 10000 nM in each case. For the same compound, the IC50 in [16] was over 10000 nM.
